Like-named read-outs stand apart in the source and are kept apart here.
Legend:
[1] = tested on: HT-29 cells (human colon tumour-derived); assay: SRB growth inhibition assay, HT-29 cells; type: cell-based; details: 48 hours exposure
Procedure: (§1) The effect of perfluorinated compounds on the inhibition of tumour cell growth was assessed iii vitro using three human tumour-derived cell lines. Cancer cell lines were tested using the sulphorhodamine B (SRB) assay (which measures cellular protein and is directly related to cell number), which is utilised by the […] to screen anti-cancer agents.
(§2) HT-29 cells (human colon tumour-derived), MCF7 cells (human breast cancer-derived) and PC3 cells (human prostate cancer-derived) were harvested and diluted (to 5×10^4 cells per ml, 1×10^5 cells per ml and 7.5×10^4 cells per ml respectively) in RPMI 1640 medium containing 5% FBS, 2 mM glutamine and. 50 μg/ml gentamicin. 100 μl of cell suspension per well was added to 96 well plates and allowed to attach overnight. Cells were exposed to test compounds dissolved in DMSO in 100 μl of medium to give final drug concentrations of 0, 0.3, 1, 3, 10, 30, 100, 300, 1000 and 3000 μM (and DMSO at 0.25%). (n=6 for each drug concentration). After 48 hours, cells were fixed in 10% trichloroacetic acid (TCA) at 4° C. for 1-2 hours then washed using water and subsequently air-dried. 100 μl SRB solution (0.4%) in 1% Acetic Acid was added to each well, and plates were incubated at room temperature for 10 minutes. Unbound dye was removed by washing with 1% acetic acid. Plates were air-dried and bound stain was solubilised in 10 mM Tris base and the absorbance read at 520 nm.

[2] = tested on: three human tumour-derived cell lines (HT-29, MCF7, PC3); assay: SRB growth inhibition, summary over the three human tumour cell lines; type: cell-based; details: over HT-29, MCF7 and PC3
Procedure: as §1, §2

[3] = tested on: PC3 cells (human prostate cancer-derived); assay: SRB growth inhibition assay, PC3 cells; type: cell-based
Procedure: as §1, §2

[4] = tested on: MCF7 cells (human breast cancer-derived); assay: SRB growth inhibition assay, MCF7 cells; type: cell-based; details: 48 hours exposure
Procedure: as §1, §2

PPAR gamma = biological target: T1, PPAR gamma (Homo sapiens, UniProt P37231); assay: PPAR gamma transactivation assay in COS-1 cells; type: cell-based
T1 construct: 25 ng of vector DNA carrying PPAR alpha, delta or gamma; expressed in transfected cells; host or cells: COS-1 (African green monkey kidney cells)
T1 sequence (P37231 1-505): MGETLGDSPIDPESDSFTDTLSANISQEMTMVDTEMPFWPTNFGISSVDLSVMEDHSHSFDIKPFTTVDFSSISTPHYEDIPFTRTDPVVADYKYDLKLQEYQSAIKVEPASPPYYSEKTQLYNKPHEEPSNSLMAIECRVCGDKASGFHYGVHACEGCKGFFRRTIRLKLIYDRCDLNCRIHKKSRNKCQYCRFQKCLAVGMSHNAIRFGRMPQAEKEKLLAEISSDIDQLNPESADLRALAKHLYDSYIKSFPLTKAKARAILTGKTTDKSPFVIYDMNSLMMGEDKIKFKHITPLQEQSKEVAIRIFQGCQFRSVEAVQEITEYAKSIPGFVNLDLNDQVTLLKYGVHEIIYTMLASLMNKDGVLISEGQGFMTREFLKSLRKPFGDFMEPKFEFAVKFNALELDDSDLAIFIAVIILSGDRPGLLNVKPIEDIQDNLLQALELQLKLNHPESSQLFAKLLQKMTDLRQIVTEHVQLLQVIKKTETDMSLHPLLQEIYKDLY

[5] = biological target: T2, human PPAR-alpha ligand binding domain (Homo sapiens, UniProt Q07869); assay: PPAR alpha ligand binding (displacement of DAUDA); details: for Kd: DAUDA displacement
T2 sequence (Q07869 179-468): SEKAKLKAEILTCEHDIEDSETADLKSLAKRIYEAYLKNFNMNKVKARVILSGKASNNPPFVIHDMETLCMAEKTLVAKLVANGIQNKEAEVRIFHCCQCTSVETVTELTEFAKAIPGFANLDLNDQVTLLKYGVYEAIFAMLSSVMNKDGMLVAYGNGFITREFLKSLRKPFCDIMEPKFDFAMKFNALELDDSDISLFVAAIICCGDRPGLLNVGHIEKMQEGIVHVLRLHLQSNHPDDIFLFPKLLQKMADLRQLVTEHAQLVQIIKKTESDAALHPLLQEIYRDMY

PPAR delta = biological target: T3, PPAR delta (Homo sapiens, UniProt Q03181); assay: PPAR delta transactivation assay in COS-1 cells; type: cell-based; design: Fold activation of PPAR delta: dose or concentration left out as unconfirmed; details: for Fold activation of PPAR delta: mean±SD n=3; for Inhibition of activation of PPAR delta (by a factor of): transactivation assay
T3 construct: 25 ng of vector DNA carrying PPAR alpha, delta or gamma; expressed in transfected cells; host or cells: COS-1 (African green monkey kidney cells)
T3 sequence (Q03181 1-441): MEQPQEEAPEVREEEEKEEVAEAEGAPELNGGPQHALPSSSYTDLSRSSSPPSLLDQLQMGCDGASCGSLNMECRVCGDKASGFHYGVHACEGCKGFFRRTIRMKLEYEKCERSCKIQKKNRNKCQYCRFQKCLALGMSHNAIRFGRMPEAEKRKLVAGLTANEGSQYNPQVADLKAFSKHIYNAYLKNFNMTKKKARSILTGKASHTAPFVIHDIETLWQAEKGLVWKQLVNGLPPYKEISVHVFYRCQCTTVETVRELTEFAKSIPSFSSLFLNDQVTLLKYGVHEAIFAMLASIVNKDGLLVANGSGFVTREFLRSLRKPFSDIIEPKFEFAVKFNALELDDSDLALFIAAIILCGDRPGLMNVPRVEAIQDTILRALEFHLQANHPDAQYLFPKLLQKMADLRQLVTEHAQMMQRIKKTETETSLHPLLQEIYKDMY

[6] = biological target: T4, human PPAR-gamma ligand binding domain (Homo sapiens, UniProt P37231); assay: PPAR gamma ligand binding (displacement of cis-parinaric acid)
T4 sequence (P37231 202-505): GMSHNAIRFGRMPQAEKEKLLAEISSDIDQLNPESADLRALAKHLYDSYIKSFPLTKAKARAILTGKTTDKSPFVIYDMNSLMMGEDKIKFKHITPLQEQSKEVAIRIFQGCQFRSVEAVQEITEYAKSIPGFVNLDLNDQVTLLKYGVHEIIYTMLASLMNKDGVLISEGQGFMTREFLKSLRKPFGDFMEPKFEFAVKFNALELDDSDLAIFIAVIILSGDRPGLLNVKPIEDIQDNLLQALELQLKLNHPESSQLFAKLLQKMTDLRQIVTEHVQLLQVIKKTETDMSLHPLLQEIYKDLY

[7] = 7-day oral gavage study, metabolic parameters, body weight and food consumption in CR SD rats; type: in vivo, rat; details: for Cholesterol (plasma) / Glucose (plasma) / Insulin (plasma) / Triglycerides (plasma): n=5; for Bodyweight change: continued till end of treatment
Procedure: Two groups (n=5) of CR SD rats (approximately 300 g) were treated with 2 dose levels of perfluorinated compounds (15 and 25 mg/kg/day body weight). Animals were administered test substances, dissolved in corn oil, by oral gavage, daily for 7 days. One group of 20 CR SD rays was also treated with vehicle (corn oil) alone. Body weight and food consumption were monitored daily.
Twenty-four hours after the last dose the animals were killed by an increasing concentration of carbon dioxide. Blood was collected by cardiac puncture and plasma was prepared and stored at −70° C. until analysed.
Plasma was analysed for triglycerides, cholesterol, and glucose, using kits purchased from Sigma. Concentrations of plasma insulin were determined using a commercially available enzyme-immunoassay-based kit from Amersham Biosciences. All assays were carried out as specified by the manufacturer.

[8] = Plasma levels of PFOA after 11 days oral dosing in SD rats (LC/MS/MS); type: in vivo, rat; details: 25 mg/kg oral daily for 11 days, 24 hours after final administration
Procedure: The study consisted of one control group of 8 male CD Sprague Dawley rats (8-10-weeks old; obtained from Harlan, UK) and 4 test groups that contained 4 rats. Animals received powdered RM1 diet ad libitum for the duration of the study. […] All chemicals were dissolved in Mazola corn oil (at 2.5 mg/ml) and test compounds were administered at 10 ml/kg bodyweight. Control animal received Mazola corn oil only. All animals were sacrificed after 11 days. Animals were killed by exposure to rising concentrations of CO2, and blood was harvested into lithium/heparin tubes for plasma.
Rat plasma samples were denatured by adding acetonitrile, and the amount of perfluorooctanoic acid (PFOA) present was determined by LC/MS/MS.

[9] = 21-day diet study, bodyweights of SD rats; type: in vivo, rat; details: 300 ppm in diet, 21 days
Procedure: This experiment investigated the effect of compounds of different % linearity on body weight over a longer study period.
The diet study consisted of one control group of 4 male animals and 4 test groups of 4 male animals (as specified earlier in this Example). Animals received powdered RM1 diet alone, or RM1 diet containing 300 ppm XEN1001 or XEN1002, ad libitum for the duration of the study. Bodyweights were measured daily for 21 days.

[10] = Homo sapiens, PC-3, 48 hours exposure
[11] = at 10 μM (maximal activation by test compound), value in parenthesis = positive control at 10 μM
[12] = 15 mg/kg/day oral gavage 7 days
[13] = 25 mg/kg/day oral gavage 7 days

SMILES | IC50 ([1]; Homo sapiens, HT-29, 48 h) [µM] | IC50 ([2]; Homo sapiens) [µM] | IC50 [3, 10] [µM] | IC50 ([4]; Homo sapiens, MCF7, 48 h) [µM] | Fold activation of PPAR gamma (PPAR gamma; [11]) [fold] | Reduction in binding affinity for PPAR alpha compared to PFOA [5] [fold] | Fold activation of PPAR delta (PPAR delta) [fold] | Inhibition of activation of PPAR delta (by a factor of) (PPAR delta) | Kd [6] [µM] | Cholesterol (plasma) [7, 12] [mmol/L] | Glucose (plasma) [7, 12] [mmol/L] | Insulin (plasma) [7, 12] [ng/mL] | Triglycerides (plasma) [7, 12] [mmol/L] | Cholesterol (plasma) [7, 13] [mmol/L] | Glucose (plasma) [7, 13] [mmol/L] | Insulin (plasma) [7, 13] [ng/mL] | Triglycerides (plasma) [7, 13] [mmol/L] | Reduction in binding affinity for PPAR gamma compared to PFOA [6] | Plasma insulin, % of control values ([7]; 25 mg/kg) [%] | Plasma concentration of PFOA (free acid) [8] | also measured
O=C(O)C(F)(F)C(F)(F)C(F)(F)C(F)(F)C(F)(F)C(F)(F)F [PFHA, Perfluoroheptanoic acid] | 371 | 200 to 600 | 321 | 573 | 3.43 ± 2.62 | 30 | 0.45 ± 0.28 | 2.2 | 99 | 1.50 ± 0.23 | 16.43 ± 2.59 | 114.2 ± 90.06 | 0.94 ± 0.20 | 1.46 ± 0.17 | 18.15 ± 2.78 | 165.1 ± 114.4 | 0.75 ± 0.26 | – | – | – | –
O=C(O)C(F)(F)C(F)(F)C(F)(F)C(F)(F)F [PFPenA, Perfluoropentanoic acid] | > 3000 | ~3000 | 2630 | > 3000 | 5.07 ± 2.29 | 10 | 0.45 ± 0.04 | 2.2 | 17 | 1.83 ± 0.41 | 16.22 ± 1.29 | 124.7 ± 126.3 | 1.24 ± 0.04 | 1.67 ± 0.20 | 16.67 ± 0.93 | 62.6 ± 68.26 | 1.07 ± 0.37 | approximately 50 fold | 33.9 | – | Kd ([5]; PPAR Receptor Binding Kd Alpha (apparent Kd)): 62 µM
N.O=C(O)C(F)(F)C(F)(F)C(F)(F)C(F)(F)C(F)(F)C(F)(F)C(F)(F)F [XEN1002, Ammoniumperfluorooctanoate] | – | – | – | – | – | – | – | – | – | – | – | – | – | – | – | – | – | – | – | equimolar concentrations of PFOA | Lost bodyweight up to day [9]: 10 days; Weight loss compared with XEN1001 [9]: more pronounced
COC(=O)C(F)(F)C(F)(F)C(F)(F)C(F)(F)C(F)(F)C(F)(F)C(F)(F)F [MPOA, Methyl perfluorooctanoate] | > 3000 | ~3000 | > 3000 | > 2790 | – | – | 1.51 ± 0.31 | – | – | 1.17 ± 0.31 | 11.48 ± 1.27 | 4.87 ± 2.611 | 0.28 ± 0.08 | 0.73 ± 0.23 | 12.99 ± 2.07 | 28.74 ± 17.22 | 0.6 ± 0.89 | – | 15.6 | equimolar concentrations of PFOA | Fold activation of PPAR gamma (PPAR gamma; at 1 mM, mean±SD n=3): 2.92 ± 0.12 fold; Plasma insulin, % of control values ([7]; 15 mg/kg): 2.6%; Weight loss ([7]; 15 mg/kg, 7 days): 8.2%; Plasma cholesterol, % of control values ([7]; 25 mg/kg): 36.7%; Plasma triglycerides, % of control values ([7]; 25 mg/kg): 33.7%; Bodyweight lost ([7]; 25 mg/kg, after day 6, terminated early): 8%; Bodyweight change ([7]; 15 and 25 mg/kg/day): lost bodyweight after day 3; Food consumption ([7]; 15 and 25 mg/kg/day, versus control): dose-related, decreases in food consumption; Plasma glucose, % of control values ([7]; dose not stated): 78.6%
O=C(O)C(F)(F)C(F)(F)F [PFPA, Perfluropropionic acid] | – | – | – | – | – | – | 0.63 ± 0.25 | 1.6 | – | 1.28 ± 0.10 | 15.46 ± 1.13 | 129 ± 36.05 | 1.02 ± 0.38 | 1.39 ± 0.39 | 14.97 ± 1.29 | 179.7 ± 177.1 | 0.95 ± 0.17 | ~2 fold | – | – | IC50 [1]: > 3000 µM; IC50 [2]: ~3000 µM; IC50 ([3]; 48 hours exposure): > 3000 µM; IC50 [4]: > 3000 µM; Fold activation of PPAR gamma (PPAR gamma; at 1 mM, mean±SD n=3): 1.86 ± 0.81 fold; Kd ([5]; read-out: PPAR Receptor Binding Kd Alpha (apparent Kd)): 2 µM; Kd ([6]; read-out: PPAR Receptor Binding Kd Gamma (apparent Kd), cis-parinaric acid displacement): 0.6 µM; Bodyweight change ([7]; 15 and 25 mg/kg/day): lost bodyweight after day 3

— patent US20060052451A1, “Method” (priority 2002, published 2006)
